Results as given in the supplement of paper PMC10307832.

Legend:
Assay in all cases: relative viability (nuclei count vs DMSO), 5 days (fraction); higher = more cells survive
[1] = compound: CC1=NC=CC(=C1)C2=CC=C(C=C2)CC(=O)NC3=CC=C(C=C3)C4=CN=CC=C4 [Wnt-C59] + CCNC(=O)c1noc(-c2cc(C(C)C)c(O)cc2O)c1-c1ccc(CN2CCOCC2)cc1 [Luminespib] (partner 0.01 µM)
Outline: (§1)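 Lung cancer cell lines were pin-tool dosed in 1536-well plates on the day after seeding, with either a lone drug or a fixed anchor-drug dose plus five library-drug doses (not always all listed) in √10 steps. Nuclei were counted on 4× images after 5 days. Relative viability is the ratio of treated-well to vehicle-well nuclei counts, with each value a median of duplicate plates.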

[2] = compound: CS(=O)(=O)CCNCc1ccc(-c2ccc3ncnc(Nc4ccc(OCc5cccc(F)c5)c(Cl)c4)c3c2)o1 [Lapatinib] + O=C(CCCCCCC(=O)Nc1ccccc1)NO [Vorinostat] (partner 1 µM)
Outline: as §1

[3] = compound: CS(=O)(=O)CCNCc1ccc(-c2ccc3ncnc(Nc4ccc(OCc5cccc(F)c5)c(Cl)c4)c3c2)o1 [Lapatinib] + CCNC(=O)c1noc(-c2cc(C(C)C)c(O)cc2O)c1-c1ccc(CN2CCOCC2)cc1 [Luminespib] (partner 0.01 µM)
Outline: as §1

[4] = compound: CS(=O)(=O)CCNCc1ccc(-c2ccc3ncnc(Nc4ccc(OCc5cccc(F)c5)c(Cl)c4)c3c2)o1 [Lapatinib] + N=C(N)NC(=N)NCCc1ccccc1 [Phenformin] (partner 250 µM)
Outline: as §1

Cell Line | relative viability ([1]; first compound 0.001 µM) | relative viability ([1]; first compound 0.01 µM) | relative viability ([1]; first compound 0.03162 µM) | relative viability ([1]; first compound 0.1 µM) | relative viability ([2]; first compound 0.06325 µM) | relative viability ([2]; first compound 0.2 µM) | relative viability ([2]; first compound 0.6325 µM) | relative viability ([2]; first compound 2 µM) | relative viability ([3]; first compound 0.06325 µM) | relative viability ([3]; first compound 0.2 µM) | relative viability ([3]; first compound 0.6325 µM) | relative viability ([3]; first compound 2 µM) | relative viability ([4]; first compound 0.06325 µM) | relative viability ([4]; first compound 0.2 µM) | relative viability ([4]; first compound 0.6325 µM) | relative viability ([4]; first compound 2 µM) | relative viability ([3]; first compound 0.02 µM) | relative viability ([4]; first compound 0.02 µM) | relative viability ([2]; first compound 0.02 µM)
NCI-H1915 | 0.867 | 0.74 | 0.986 | 0.785 | 0.494 | 0.554 | 0.489 | 0.473 | 0.847 | 0.832 | 0.707 | 0.848 | 0.375 | 0.384 | 0.361 | 0.39 | – | – | –
NCI-H1395 | 0.702 | 0.589 | 0.762 | 0.773 | 0.704 | 0.779 | 0.789 | 0.646 | 0.761 | 0.706 | 0.599 | 0.663 | 0.431 | 0.442 | 0.444 | 0.432 | 0.849 | 0.45 | –
CAL-12T | 0.397 | 0.307 | 0.592 | 0.571 | 0.624 | 0.755 | 0.71 | 0.424 | 0.236 | 0.477 | 0.235 | 0.35 | 0.474 | 0.5 | 0.404 | 0.337 | – | – | 0.655
SW 900 | 0.159 | 0.179 | 0.172 | 0.197 | 0.516 | 0.476 | 0.468 | 0.408 | 0.176 | 0.17 | 0.164 | 0.175 | 0.484 | 0.554 | 0.554 | 0.531 | – | – | –
NCI-H2342 | 0.692 | 0.658 | 0.806 | 0.809 | 0.596 | 0.625 | 0.707 | 0.693 | 0.607 | 0.665 | 0.692 | 0.703 | 0.557 | 0.574 | 0.51 | 0.489 | 0.579 | 0.511 | 0.562
HARA | 0.662 | 0.557 | 0.721 | 0.65 | 0.452 | 0.443 | 0.467 | 0.427 | 0.58 | 0.54 | 0.499 | 0.399 | 0.307 | 0.434 | 0.399 | 0.337 | – | – | –
H3255 | 0.94 | 0.884 | 1.04 | 0.919 | 0.697 | 0.741 | 0.816 | 0.293 | 0.676 | 0.879 | 0.805 | 0.757 | 0.327 | 0.314 | 0.299 | 0.224 | 0.471 | 0.37 | –
NCI-H1792 | 0.515 | 0.388 | – | 0.656 | – | – | – | – | – | 0.413 | 0.403 | 0.255 | – | 0.219 | 0.207 | 0.289 | – | – | –
NCI-H2023 | 0.775 | 0.757 | 0.785 | 0.702 | 0.402 | 0.603 | 0.612 | 0.552 | 0.593 | 0.723 | 0.751 | 0.619 | – | 0.417 | 0.429 | 0.307 | 0.696 | 0.395 | –
HCC-78 | – | – | – | – | 0.318 | 0.39 | 0.388 | 0.375 | – | – | – | – | 0.631 | 0.588 | 0.856 | 0.654 | – | – | –
